Data taken from patent EP1176134A1, “LIGANDS OF NUCLEAR RECEPTORS PPAR'S” (Nuclear Receptor Research Limited, priority 1999, dated 2000).

Experiments:
[1] = system: PPARγ; assay: transfer (reporter) gene activity assay in transfected COS-1 cells, PPARγ; type: cell-based; conditions: luciferase reporter, 20 hours
Experimental: Transfection was performed by a standard procedure using a LipofectAMINE reagent from Life Technologies. A 35 mm Petri dish containing 1 x 10^5 cells dispersed in 2 ml of Dulbecco's minimum medium (DMEM) containing 10% fetal bovine serum was incubated in a CO2 incubator for 17 hours. Then, the medium was removed and cells adhered to the Petri dish were washed with phosphate buffered physiological saline (PBS), after which transfection was performed using a LipofectAMINE reagent. That is, […] of a minimum serum medium OptiMEM (Life Technologies) containing […] of a plasmid bearing the luciferase gene whose expression is controlled by PPAR-responsive elements, […] of a PPAR expression plasmid and 2 mg of a plasmid bearing the β-galactosidase gene for monitoring transfection efficiency was preliminarily mixed with […] of OptiMEM containing 50 ml of LipofectAMINE dissolved therein, and the mixed solution was maintained at room temperature for 15 minutes. A Petri dish containing a mixture of 100 ml of this mixed solution and 400 ml of OptiMEM was incubated in a CO2 incubator at 37°C for 3 hours. The transfection medium was aspirated off from the Petri dish, which was supplied with DMEM containing 10% serum treated with activated carbon and a test compound and incubated at 37°C for 20 hours. […] The medium also contains a solvent for test compounds dimethyl sulfoxide (final concentration 0.1%).
(§1) After the medium in the Petri dish was aspirated off, […] of a lysing solution for cultured cells (25 mM Tris phosphate buffer (pH 7.8), 2 mM 1,2-diaminocyclo-hexane-N, N,N',N'-tetraacetate, 10% glycerol, 1% Triton X-100) was added and cells were scraped with rubber policeman. Cells were completely disrupted by freezing and thawing and then centrifuged at 4°C (15,000 rpm, 2 min), and the supernatants were used as test samples. […] The β-galactosidase for monitoring transfection efficiency was measured for fluorescence in a luminometer using Luminescent β-galactosidase detection kit II (Clontech). […]

[2] = system: NOD mice; assay: prevention of onset of type I diabetes in NOD mice; type: in vivo, female NOD mice; conditions: 10 animals
Experimental: (§2) Each group consists of 10 animals.
The mice were bred for 24 weeks, during which they were tested for urinary sugar excretion using an urinary sugar detection tape on Monday and Friday (Fig. 3).

[3] = system: DOCA hypertension rats; conditions: orally administered to DOCA hypertension rats; cited from earlier work
[4] = system: serum lipid; conditions: cited from earlier work
[5] = system: rat hypertension model; assay: prevention of aneurysms in DOCA/saline one-kidney rat hypertension model; type: in vivo, male Wistar rats
Experimental: Compounds of the present invention show the effect of preventing periarteritis nodosa and aneurysms. In order to evaluate the effect of preventing aneurysms, a quantitatively assayable rat hypertension model was used so that aneurysms formed in mesenteric arteries were measured and statistically processed to determine the effect. The membrane was removed with forceps from isolated mesenterium and the remaining arterioles were fixed with formalin and then fat-stained. The number of arterioles and the number of aneurysms were counted in triplicate to calculate the average number of aneurysms per arteriole. As a hypertension model, rats with one kidney extracted to decrease renal function were given 0.9% saline as drinking water having a slightly higher osmosis than plasma and subcutaneously received 10 mg/kg of a mineral corticoid deoxycorticosteron acetate (DOCA) weekly. The left kidney was extracted from male Wistar rats (12 animals) under anesthetization. The rats deprived of kidney were randomly divided into two groups (n = 6) after a period of recovery for a week. One of the two groups was a control group and the other received compound 1. […] The experimental period was 7 weeks, during which feed intake, drinking water intake, urine volume, body weight and blood pressure were measured every 3 days from the start of experiments. […]

[6] = system: streptozotocin-induced diabetes; assay: streptozotocin-induced diabetes in rats; type: in vivo, male Wistar rats; conditions: 100 mg/kg orally once daily; for Body weight / Drinking water intake / Feed intake / Urinary sugar excretion / Urine volume: n=8
Experimental: Streptozotocin (50 mg/kg) was injected into the tail vein of male Wistar rats weighing about 250 g to prepare an insulin deficiency diabetes model. Compound 1 suspended in a gum arabic solution was orally administered at 100 mg/kg once daily, starting immediately after administration of streptozotocin. The animals were housed in a urine-collecting cage for 24 hours on days 7 and 14 to collect urine for 24 hours. […] However, weight gain was 80 g/week in the healthy group in contrast with only 18 g/week in the diabetes control group. […] This means that administration of compound 1 improved metabolism to greatly reduce urinary sugar excretion.

[7] = system: Ehrlich ascites tumor cells; assay: hyperlipidemia (cachexia marker) in Ehrlich ascites tumor bearing mice; type: in vivo, male ddY-strain mice; conditions: for Body weight / Serum neutral Serum neutral fat: day 8, mean±SD, n=8
Text: In these experiments, serum neutral fat was selected as an indication of cachexia to serve as an auxiliary marker for knowing dynamics of TNFα that is difficult to quantitize, because it is difficult to exactly measure blood TNFα and it is easier to measure serum neutral fat than blood TNFα. Forty male ddY-strain mice at 5 weeks of age were randomly divided into 5 groups (n = 8), among which 4 groups were intraperitoneally implanted with 2 x 10^6 Ehrlich ascites tumor cells. The group implanted with no tumor cells was a healthy control group. From 24 hours after implantation of tumor cells, 3 groups intraperitoneally received 100-400 mg/kg of compound 1, while the other group received a solvent 0.1% Tween 80 (0.2 ml) alone free from compound 1. On day 8 after implantation of tumor cells, blood was collected from the heart of tumor bearing mice to assay neutral fat in separated serum and detect blood TNFα by immunoelectrophoresis.

[8] = system: immobilized PPARγ receptor; assay: Surface Plasmon Resonance sensor (BIAcore) binding test; conditions: BIAcore sensorgram, Fig. 4
Text: as §2
A Surface Plasmon Resonance sensor (BIAcore column) was used to examine whether or not compounds of the present invention bind immobilized PPARγ receptor.

[9] = system: db/db mice; assay: blood glucose and urinary sugar excretion in db/db mice; type: in vivo; conditions: 60 mg/kg orally once daily, Fig. 2
Experimental: Blood was collected from the tail vein of ten db/db mice at 12 weeks of age 2 days before the start of experiments, and the animals were divided into two groups each having an average blood glucose level of 720-740 mg/dl. One group was a control group, while the other group orally received compound 25 at 60 mg/kg once daily. […] SA solid diamond denotes the control group, solid triangle denotes the: group treated with compound 1 at 25 mg/kg, open square denotes the: group treated with compound 1 at 50 mg/kg, and cross denotes the: group treated with compound 25 at 50 mg mg/kg. Each group consists of 10 animals.
Blood was collected from the tail vein of ten db/db mice at 12 weeks of age, and the animals were divided into two groups, ie, a control group and a compound 25 group, each having an average blood glucose level of about 700 mg/dl and housed in urine-collecting cages. A small amount of blood was collected from the tail vein on days 1, 2, 3, 5, 7 and 10 from the start of experiments to determine blood glucose. Urine was collected for 24 hours at the same intervals to determine urinary sugar excretion level by the oxygen method.

[10] = system: hereditary obese and diabetic mice C57BL/ksj db/db; assay: polydipsia/polyuria and urinary sugar excretion in db/db mice fed compound in diet; type: in vivo
Experimental: Ten male db/db mice at 30-32 weeks of age were randomly divided into two groups (n = 5), ie, a control group and compound 17 group. The animals were allowed free access to diet and drinking water. The diet was mouse II rat standard food CE-2 powder from Clea Japan, which was pelletized after a solution of compound 17 in acetone was applied and acetone was evaporated by air-drying. Compound 17 was added in an amount of 0.1% of the diet. A control diet was also pelletized after the same amount of acetone was applied.
Both groups received the control diet for first 7 days to test feed intake, urine volume, urinary sugar level and urinary sugar excretion level. During the following 5 days, the treatment group received the diet containing 0.1% compound 17. The treatment group was bred with the control diet again for further 4 days and then bred with the diet containing 0.1% compound 17 again for 5 days on […]. As db/db mice individually bred in metabolic cages show wide variation in feed and drinking water intakes, 5 animals were housed in a rat metabolic cage and the values obtained in each cage were divided by 5 and shown in Fig. 1. […] Urinary sugar excretion level is 50% or less as compared with the control period even 24 hours after administration is stopped, showing that compound 17 has a carry-over effect.

[11] = system: PPARα; assay: transfer (reporter) gene activity assay in transfected COS-1 cells, PPARα; type: cell-based; conditions: luciferase reporter, 20 hours
Experimental: Transfection was performed by a standard procedure using a LipofectAMINE reagent from Life Technologies. A 35 mm Petri dish containing 1 x 10^5 cells dispersed in 2 ml of Dulbecco's minimum medium (DMEM) containing 10% fetal bovine serum was incubated in a CO2 incubator for 17 hours. Then, the medium was removed and cells adhered to the Petri dish were washed with phosphate buffered physiological saline (PBS), after which transfection was performed using a LipofectAMINE reagent. […]
as §1, with “policeman.” for “policeman. Cells were completely disrupted by freezing and thawing and then centrifuged at 4°C (15,000 rpm, 2 min), and the supernatants were used as test samples.”

[12] = 50 mg/kg intraperitoneally twice weekly
[13] = Dose 100 mg/kg intraperitoneally
[14] = Dose 200 mg/kg intraperitoneally
[15] = Dose 400 mg/kg intraperitoneally
[16] = groups treated with 100-400 mg/kg
[17] = diet containing 0.1% compound, Fig. 1

SMILES: CC(/C=C/C1(C)C(C)CCC(=O)C1C)=C\Cc1c(O)c(C=O)c(C)c(Cl)c1OC(=O)CCCC(=O)O (centres unmarked) [Compound 29, 4-O-(4-Carboxybutanoyl)ascochlorin]
- Activation of receptors PPARγ [1]: +++ (Activation peak appears at 10^-6-10^-5M.)

SMILES: COc1c(C=O)c(C)c(Cl)c(O)c1C/C=C(\C)CC/C=C(\C)C1CC(=O)C(C)(C)O1 (centres unmarked) [Compound 7, 2-O-methyl AF]
- Activation of receptors PPARγ [1]: +++ (Activation peak appears at 10^-6-10^-5M.)

SMILES: C/C(=C\Cc1c(O)c(Cl)c(C)c(C=O)c1O)CC/C=C(\C)C1CC(=O)C(C)(C)O1 (centres unmarked) [Compound 1, Ascofuranone]
- incidence of type I diabetes at week 24 ([2]; 25 mg/kg intraperitoneally twice weekly): 30%
- incidence of type I diabetes at week 24 [2, 12]: 10%
- Activation of receptors PPARγ [1]: +++ (Activation peak appears at 10^-6-10^-5M.)
- indications of cardiovascular diseases [3]: improves indications of cardiovascular diseases
- pressure rise [3]: does not suppress pressure rise
- toxicity ([4]; orally administered to rodents): very low toxicity
- effect on serum lipid ([4]; orally administered, rats bred with a standard diet or a high-fat diet): lowering serum lipid
- effect of suppressing pressure rise (blood pressure) ([5]; orally 100 mg/kg from week 3, compared with control group): any significant effect of suppressing pressure rise was not observed
- aneurysms (mean ± SE) per mesenteric artery ([5]; orally 100 mg/kg from week 3, dissected at week 7, n = 6): 0.51 ± 0.37 aneurysms per mesenteric arter
- weight gain [6]: 30 g/week
- Body weight ([6]; Day 7): 307.7±4.8 g/rat
- Drinking water intake ([6]; Day 7): 99.9±13.0 ml/rat/day
- Feed intake ([6]; Day 7): 32.9±1.9 g/rat
- Urinary sugar excretion ([6]; Day 7): 5.39±0.55 g/rat/day
- Urine volume ([6]; Day 7): 74.6±6.4 ml/rat/day
- Body weight ([6]; Day 14): 318.3±6.8 g/rat
- Drinking water intake ([6]; Day 14): 106.9±18.0 ml/rat/day
- Feed intake ([6]; Day 14): 32.6±2.9 g/rat
- Urinary sugar excretion ([6]; Day 14): 5.78±1.09 g/rat/day
- Urine volume ([6]; Day 14): 79.7±12.5 ml/rat/day
- drinking water intake as compared with the diabetes control group ([6]; day 7): 41.4%
- feed intake decrease as compared with the diabetes control group ([6]; day 7): 14.3%
- drinking water intake as compared with the diabetes control group ([6]; day 14): 43.6%
- feed intake decrease as compared with the diabetes control group ([6]; day 14): 23.3%
- Body weight [7, 13]: 38.0±1.0 g/mouse
- Serum neutral Serum neutral fat [7, 13]: 258.2 ± 53.2 mg/dL
- Body weight [7, 14]: 36.7±0.7 g/mouse
- Serum neutral Serum neutral fat [7, 14]: 185.1 ± 26.2 mg/dL
- Body weight [7, 15]: 31.3±1.1 g/mouse
- Serum neutral Serum neutral fat [7, 15]: 99.1 ± 18.3 mg/dL
- blood TNFα [7, 16]: downward tendency
- blood glucose level [7, 16]: significant increase
- increase of serum neutral fat [7, 16]: dose-dependently suppressed

SMILES: COc1c(C=O)c(C)c(Cl)c(OCC(=O)O)c1C/C=C(C)/C=C/C1(C)C(C)CCC(=O)C1C (centres unmarked) [Compound 27, 4-O-Carboxymethyl-2-O-methylascochlorin]
- Activation of receptors PPARγ [1]: ++ (Activation peak appears at 10^-5-10^-4M.)
- binding to immobilized PPARγ receptor (SPR signal) [8]: clearly generates a signal

SMILES: CC(/C=C/C1(C)C(C)CCC(=O)C1C)=C\Cc1c(O)c(C=O)c(C)c(Cl)c1OCC(=O)O (centres unmarked) [Compound 25]
- incidence of type I diabetes at week 24 [2, 12]: 10%
- Activation of receptors PPARγ [1]: +++ (Activation peak appears at 10^-6-10^-5M.)
- blood glucose loss ([9]; day 7): over 30%
- urinary sugar ([9]; day following the start of administration): decreased to a half
- blood glucose ([9]; from day 3 of administration): significantly decreased
- urinary sugar excretion level loss ([9]; on and after day 3): over 90%

SMILES: COc1c(Cl)c(C)c(C=O)c(O)c1C/C=C(C)/C=C/[C@@]1(C)[C@H](C)CCC(=O)[C@@H]1C [Compound 17, 4-O-MeAS]
- Urinary sugar excretion level as compared with the control period ([10]; 24 hours after administration is stopped, 0.1% in diet): ≤ 50%
- Urine volume [10, 17]: sharply decrease
- urinary sugar excretion level [10, 17]: sharply decrease
- urinary sugar level [10, 17]: sharply decrease

SMILES: C/C(=C\Cc1c(O)c(Cl)c(C)c(C=O)c1O)CC/C=C(\C)C1=CC(=O)C(C)(C)O1 [Dehydroascofuranone]
- Activation of receptors PPARα [11]: ++ (Activation peak appears at 10^-5-10^-4M.)

SMILES: COc1c(C=O)c(C)c(Cl)c(O)c1C/C=C(C)/C=C/C1(C)C(C)CCC(=O)C1C (centres unmarked) [Compound 21, 2-O-methylascochlorin]
- Activation of receptors PPARγ [1]: ++ (Activation peak appears at 10^-5-10^-4M.)

SMILES: CC(/C=C/C1(C)C(C)CCC(=O)C1C)=C\Cc1c(O)c(C=O)c(C)c(Cl)c1OC(=O)c1cccnc1 (centres unmarked) [Compound 26]
- Activation of receptors PPARγ [1]: ++ (Activation peak appears at 10^-5-10^-4M.)
